From PMC5085761 (International Journal of Molecular Sciences, 2016) come the findings set out here.

Series [1] has as its target T1, human BCRP (Homo sapiens, UniProt Q9UNQ0).
T1 construct: purchased GenoMembrane Co., Ltd. (Kanagawa, Japan); host or cells: Sf9
T1 sequence (Q9UNQ0 1-655): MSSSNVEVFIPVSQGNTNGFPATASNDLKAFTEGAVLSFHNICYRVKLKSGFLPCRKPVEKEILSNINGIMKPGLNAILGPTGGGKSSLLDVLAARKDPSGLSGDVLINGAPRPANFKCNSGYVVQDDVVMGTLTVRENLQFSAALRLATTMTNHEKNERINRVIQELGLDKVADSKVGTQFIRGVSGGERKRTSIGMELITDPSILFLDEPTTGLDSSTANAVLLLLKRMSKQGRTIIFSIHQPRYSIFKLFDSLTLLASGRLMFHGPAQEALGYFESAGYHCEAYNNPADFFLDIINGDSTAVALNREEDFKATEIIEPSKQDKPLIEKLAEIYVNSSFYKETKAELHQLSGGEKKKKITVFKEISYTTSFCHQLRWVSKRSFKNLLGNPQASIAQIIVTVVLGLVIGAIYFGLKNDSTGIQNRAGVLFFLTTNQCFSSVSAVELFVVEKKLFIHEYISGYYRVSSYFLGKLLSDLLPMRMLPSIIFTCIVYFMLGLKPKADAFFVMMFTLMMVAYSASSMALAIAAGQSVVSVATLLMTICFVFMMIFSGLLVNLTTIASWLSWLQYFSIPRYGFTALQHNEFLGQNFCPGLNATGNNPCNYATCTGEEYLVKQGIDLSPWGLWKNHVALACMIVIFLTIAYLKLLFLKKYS
Put plainly: [14C]fluciclovine uptake by BCRP-expressing inside-out vesicles. Format: in vitro ADME. On the procedure:
For ABC transporters, experimental kits containing Sf9-derived vesicles with high expression levels of human P-gp, MRP4, BCRP, and each ABC transporter (including buffer, ATP/AMP solution, and glutathione) were purchased from GenoMembrane Co., Ltd. (Kanagawa, Japan).
Vesicular transport assays were carried out according to the manufacturer’s protocol. […] The reaction was started by suspending 50 μg of vesicles (10 μL) in 40 μL of the reaction buffer. After incubation for an appropriate period of time, the reaction was stopped by the addition of ice-cold stop buffer (40 mM MOPS-Tris and 70 mM KCl; pH 7.0), after which the solution was filtered through a 0.45 μm HA filter (Millipore Corp., Billerica, MA, USA) using suction, and was washed twice in 5 mL of ice-cold stop buffer. The radioactivity of the filter was measured with a Tri-Carb 2910TR liquid scintillation counter (PerkinElmer) using Ultima Gold (PerkinElmer). The amount of tracer uptake was normalized to the membrane protein amount described in the product information sheets.

Series [2] has as its target T2, OCT2 (Homo sapiens, UniProt O15244).
T2 construct: host or cells: HEK293
T2 sequence (O15244 1-555): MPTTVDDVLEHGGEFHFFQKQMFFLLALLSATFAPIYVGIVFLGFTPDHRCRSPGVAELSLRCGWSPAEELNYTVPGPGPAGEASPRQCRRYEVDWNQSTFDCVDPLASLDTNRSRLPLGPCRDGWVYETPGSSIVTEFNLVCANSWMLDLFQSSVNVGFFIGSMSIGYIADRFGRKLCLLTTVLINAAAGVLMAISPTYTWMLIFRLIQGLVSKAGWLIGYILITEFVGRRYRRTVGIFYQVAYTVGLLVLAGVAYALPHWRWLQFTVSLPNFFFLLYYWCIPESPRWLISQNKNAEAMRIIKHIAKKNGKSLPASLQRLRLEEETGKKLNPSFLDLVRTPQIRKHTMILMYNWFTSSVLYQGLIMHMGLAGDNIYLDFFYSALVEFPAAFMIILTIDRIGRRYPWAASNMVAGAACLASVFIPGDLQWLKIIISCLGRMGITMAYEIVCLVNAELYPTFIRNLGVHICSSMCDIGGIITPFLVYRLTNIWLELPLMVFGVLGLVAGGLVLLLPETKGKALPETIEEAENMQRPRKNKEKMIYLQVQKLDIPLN
Put plainly: [14C]fluciclovine uptake by OCT2-expressing cells. As to conditions: OCT2 cells vs mock cells. It counts as in vitro ADME.

Each structure is given as a SMILES string.

Take `N[14C]1(C(=O)O)CC(F)C1` (stereo not drawn) [[^14C]fluciclovine, trans-1-amino-3-fluoro[1-^14C]cyclobutanecarboxylic acid]: in series [1], the “uptake compared with control vesicles” value is listed as “reduced in comparison to that of the control vesicles, albeit not significantly”. The drug transporter-mediated uptake result in series [2] is given as “negligible”.
